Molecules are shown by their SMILES. “Also recorded” adds a separate entry of the source.

A short description of data set [1]: Mechanical stability of the emulsion with tonicity adjusters. The conditions noted are these: tonicity adjuster compared with sodium chloride. The data set is classed as physicochemical. An excerpt: Glycerin USP is used in the formulation to adjust the tonicity of the emulsion. For intravenous infusion, it is important that the tonicity of the emulsion be in the same physiological range as blood tonicity. Glycerin was chosen because it has a long history of use in parenteral emulsions and because it is not an ionizable species that could contribute to coalescence of the emulsion particles by disruption of the charged layer (zeta potential) surrounding the particles.

Data set [2] in a line: Gas carrying capacity (oxygen, CO2). The conditions noted are these: at body temperature. The data set is classed as physicochemical. The procedure: Perfluoro(tert-butylcyclohexane) can carry about 43 mL of oxygen per 100 mL of PFC, and 196 mL of CO2 per 100 mL of PFC at body temperature.
FtBu can dissolve and release large amounts of gases, including the blood gases oxygen and carbon dioxide. […] As such, no sinusoidal release curve of oxygen is encountered. The transport and release of oxygen and other gases by FtBu is a simple passive process, the quantity of gas dissolved is linearly related to its partial pressure, essentially following Henry's Law.
In the body the PFC emulsion is capable of uploading and unloading oxygen and CO2 more efficiently than blood, (at a FtBu concentration of 60% w/v, Oxycyte® can dissolve 3-4 times the amount of oxygen than human hemoglobin can off-load under normal physiological conditions) and this process is concentration-gradient mediated (Henry's Law). Because the median size of the PFC droplets is approximately 40-50 times smaller than an erythrocyte, Oxycyte® is able to oxygenate tissues with narrowed capillaries, as occurs in brain contusions. After about 10 hours, half of an intravenous dose of 3 mL/kg remains in the circulation. PFCs are eliminated from the blood when macrophages scavenge the lipid particles. This is quite similar to how Intralipid® is transported from the blood stream. PFCs are deposited in the liver and spleen. […]

The nature of data set [3]: Solubility of FtBu in water and solvents. In kind it is physicochemical. The note with it: room temperature. An excerpt:
FtBu is most soluble in halogenated solvents such as isoflurane. Therefore, FtBu needs to be formulated as an aqueous emulsion for intravenous administration.

The test system of data set [4] is monkeys. The experiment in a line: Single-dose GLP toxicity study, pulmonary hyperinflation. In kind it is in vivo. The conditions noted are these: 60% and 20% w/v, compared with PFOB. An excerpt: (§1) Perfluoro(tert-butylcyclohexane) at both 60% and 20% w/v concentrations has been tested in controlled, single-dose Good Laboratory Practice (GLP) toxicity studies in rats and monkeys. […] Nevertheless, perfluoro(tert-butylcyclohexane) represents a better balance between persistence and the tendency to produce hyperinflated, non-collapsible lungs than what is seen with PFOB and perfluorodecalin.

For data set [5], the system named is skin tissue. The experiment in a line: Measuring oxygen tension in tissue with fluorescent marker (Example 3). The data set is classed as in vivo. The note with it: skin area treated with PFC. The procedure: A material which binds oxygen (fluorescent marker) is injected into skin tissue. The combination is fluorescent and the more oxygen that is present, the stronger the fluorescent signal. (representing the oxygen tension in the tissue). First it is determined that fluorescence chemistry is unaffected by the PFCs and poloxamers. Then as a control, the fluorescent marker is injected into the skin, and oxygen tension is obtained. Finally, the same area is treated with a PFC, PFC emulsion or a PFC gel and oxygen tension is again obtained.

Data set [6] in a line: Physical properties of perfluoro(tert-butylcyclohexane). The data set is classed as physicochemical. An excerpt:
Physical properties of perfluoro(tert-butylcyclohexane) are as follows: […]

For data set [7], the system named is rats and monkeys. Briefly: Single-dose GLP toxicity studies, absorption and persistence. In kind it is in vivo.
Source text: as §1

Turning to `OCC(O)CO` [glycerin, Glycerin], in data set [1], the “mechanical stability of the emulsion” value was “superior to sodium chloride”.

In the case of `FC(F)(F)C(C(F)(F)F)(C(F)(F)F)C1(F)C(F)(F)C(F)(F)C(F)(F)C(F)(F)C1(F)F` [perfluoro(tert-butylcyclohexane), 1-(1,1-bis(trifluoromethyl)-2,2,2-trifluoroethyl)-1,2,2,3,3,4,4,5,5,6,6-undecafluorocyclohexane], in data set [2], the CO2 carried is reported as ~196 mL of CO2 per 100 mL of PFC and the oxygen carried entry is “about 43 mL of oxygen per 100 mL of PFC”. Also, in data set [3], the “solubility in 2,2,4-trimethylpentane(isooctane)” value was “only minimal solubility”, the “solubility in halogenated solvents such as isoflurane” value is “most soluble” and the solubility in water result is “virtually insoluble in water”. Besides, the “degree of pulmonary hyperinflation” value in data set [4] was “significantly less than that seen in monkeys treated with PFOB; also recorded: correspondingly lesser propensity to cause pulmonary hyperinflation”. The “local oxygen tension in the tissue” value in data set [5] is given as “substantially increases local oxygen tension”. Further, in data set [6], the Density is 1.97 g/mL and the “Kinematic Viscosity” value stood at 5.378 cP. The “Vapor Pressure @ 25° C.” value in data set [6] (25° C.) is recorded as 3.8 mmHg. Besides, the “Vapor Pressure @ 37° C.” value in data set [6] (37° C.) is 4.4 mmHg. For the same compound, in data set [7] (compared with PFOB), the “persistence in liver and spleen (RES half-life)” value was “somewhat longer than what has been reported for PFOB; also recorded: somewhat longer than that of the benchmark perfluorocarbon, PFOB”. In addition, in data set [7] (single dose), the “absorption in the body” value is reported as “generally comparable to what has been reported for other PFCs”.

`OC[C@@H](O)[C@@H](O)[C@H](O)[C@H](O)CO` [mannitol]: the “mechanical stability of the emulsion” value in data set [1] is “superior to sodium chloride”.

For the origin of these results see patent US20160243237A1, “EMULSIONS OF PERFLUOROCARBONS” (TENAX THERAPEUTICS, INC., priority 2009, published 2016).
